Assay results from the supplement of paper PMC10307832.

What was measured:
Assay in all cases: relative viability (nuclei count vs DMSO), 5 days (fraction); higher = more cells survive
[1] = compound: C1CNCCC1C2=CC(=NN2)C3=CC=NC=C3 + O=C(c1cc(Cc2n[nH]c(=O)c3ccccc23)ccc1F)N1CCN(C(=O)C2CC2)CC1 [Olaparib] (partner 8 µM)
Outline: (§1)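 Cells from lung cancer lines were seeded into 1536-well plates and, one day later, dosed by pin tool. Treatments were either a single drug or a fixed dose of an anchor drug with five library-drug doses (not always all listed) in √10 steps. After 5 days, nuclei were stained in a one-step fixation (final 0.05% Triton X-100, 1% formaldehyde, 1 ug/ml Hoechst) and counted on 4× images, and relative viability is the treated-to-vehicle nuclei ratio, as the median of duplicate plates.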

[2] = compound: C[C@@H](N)c1ccc(C(=O)Nc2ccnc3[nH]ccc23)cc1 + NC(=O)Nc1cc(-c2cccc(F)c2)sc1C(=O)N[C@H]1CCCNC1 [AZD7762] (partner 0.2 µM)
Outline: as §1

[3] = compound: C[C@@H](N)c1ccc(C(=O)Nc2ccnc3[nH]ccc23)cc1 + CS(=O)(=O)N1CCN(Cc2cc3nc(-c4cccc5[nH]ncc45)nc(N4CCOCC4)c3s2)CC1 [Pictilisib] (partner 1 µM)
Outline: as §1

[4] = compound: C[C@@H](N)c1ccc(C(=O)Nc2ccnc3[nH]ccc23)cc1 + Cc1nc(Nc2ncc(C(=O)Nc3c(C)cccc3Cl)s2)cc(N2CCN(CCO)CC2)n1 [Dasatinib] (partner 0.075 µM)
Outline: as §1

Row | Cell Line | relative viability ([1]; first compound 0.08 µM) | relative viability ([1]; first compound 0.8 µM) | relative viability ([1]; first compound 2.53 µM) | relative viability ([1]; first compound 8 µM) | relative viability ([2]; first compound 0.1265 µM) | relative viability ([2]; first compound 0.4 µM) | relative viability ([2]; first compound 1.265 µM) | relative viability ([2]; first compound 4 µM) | relative viability ([3]; first compound 0.04 µM) | relative viability ([3]; first compound 0.1265 µM) | relative viability ([3]; first compound 0.4 µM) | relative viability ([3]; first compound 1.265 µM) | relative viability ([3]; first compound 4 µM) | relative viability ([4]; first compound 0.04 µM) | relative viability ([4]; first compound 0.1265 µM) | relative viability ([4]; first compound 0.4 µM) | relative viability ([4]; first compound 1.265 µM) | relative viability ([4]; first compound 4 µM) | relative viability ([2]; first compound 0.04 µM)
1 | HCC-827 | 0.597 | 0.0303 | 0.665 | 0.743 | 0.286 | 0.247 | 0.329 | 0.275 | 1.22 | 1.27 | 1.12 | 0.978 | 0.783 | 0.411 | 0.466 | 0.433 | 0.46 | 0.267 | –
2 | HOP-62 | 0.234 | 0.386 | 0.275 | 0.47 | 0.471 | 0.746 | 0.685 | 0.402 | 0.539 | 0.413 | 0.827 | 0.0717 | 0.887 | 0.435 | 0.632 | 0.617 | 0.515 | 0.303 | 0.534
3 | IA-LM | 1.02 | 0.916 | 0.87 | 0.846 | – | – | – | – | 0.456 | 0.484 | 0.752 | 0.676 | 0.835 | – | – | – | – | – | –
4 | LC-2-ad | 0.719 | 0.781 | 0.664 | 0.694 | 0.787 | 0.823 | 0.787 | 0.599 | 0.641 | 0.43 | 0.696 | 0.592 | 0.372 | 0.717 | 0.639 | 0.814 | – | 0.389 | 0.763
5 | LCLC-97TM1 | 0.341 | 0.399 | 0.429 | 0.326 | 0.234 | 0.425 | 0.314 | 0.639 | 0.257 | 0.176 | 0.259 | 0.106 | 0.421 | 0.989 | 0.905 | 0.984 | 0.879 | 0.794 | 0.302
6 | LCLC-103H | 0.79 | 0.839 | 0.717 | 0.723 | 0.77 | 0.757 | 0.658 | 0.522 | 0.756 | 0.616 | 0.54 | 0.482 | 0.584 | 0.363 | 0.506 | 0.474 | 0.285 | 0.279 | 0.709
7 | LK-2 | – | 0.872 | 0.897 | 0.707 | 0.385 | 0.603 | 0.434 | 0.621 | 0.79 | 0.537 | 0.739 | – | 0.822 | 0.375 | – | 0.339 | – | 0.424 | 0.493
8 | NCI-H520 | 0.332 | 0.356 | 0.381 | 0.266 | – | – | – | – | 0.33 | 0.301 | 0.29 | 0.396 | 0.504 | 0.212 | 0.205 | 0.181 | 0.219 | 0.196 | –
9 | NCI-H522 | 0.63 | 0.712 | 0.726 | 0.803 | 0.759 | 0.979 | 0.971 | 0.813 | – | – | – | – | – | 0.797 | 0.931 | 0.827 | 0.771 | 0.765 | 0.833
10 | NCI-H661 | 0.705 | 0.757 | 0.75 | 0.733 | – | – | – | – | 0.433 | 0.54 | 0.454 | 0.351 | 0.509 | 0.702 | 0.878 | 0.893 | 0.723 | 0.55 | –
